Experimental data: patent US20050026296A1, “Diagnostic method based on lipid measuring parameter modulations/effector quotient profiles” (priority 2001, published 2005)

Test system: leukocytes from the peripheral blood
Assay: Release of prostaglandin E2 (PGE2) and peptide leukotrienes (pLT) from leukocytes after modulation, quantified by EIA
Format: cell-based, human
Conditions: for PGE2 (lipid measurement parameter A) in cell culture supernatant / pLT (lipid measurement parameter B) in cell culture supernatant: 100,000 cells/ml, 37° C., 30 minutes; for Standardized effector quotient (PGE/pLT) / Standardized modulation quotient PGE2 / Standardized modulation quotient pLT: divided by quotient of standard group
Protocol: Human leukocytes of the peripheral blood are separated from plasma with the aid of a dextran gradient, and adjusted to a defined cell count (100,000 cells/ml). Subsequently, the stimulation is effected by incubation of the cells, e.g. without or while adding arachidonic acid as modulating indicator substance, or anti-IgE as modulating effector for a defined time (30 minutes) at 37° C. in cell culture medium (e.g. RPMI 1640). After sedimentation of the cells by centrifugation for 5 minutes with 800×g at 4° C., the cell-free supernatant is collected and can be stored at −80° C. under nitrogen or argon, if desired. Afterwards, these measurement samples are transferred to a polystyrol plate coated with prostaglandin E2 or peptide leukotrienes, respectively, and incubated for 18 hours at 4° C. while adding an anti-prostaglandin-E2- or anti-peptide-leukotriene-antibody, respectively, (“competitive assay”). After a washing step, an incubation at 23° C. for 2 hours is performed with a biotinylated secondary antibody against the first antibody. After further washing, incubation follows with a streptavidin-conjugated peroxidase at 23° C. for 1 hour, and after further washing, a peroxidase substrate is added and the optical density is determined after about 30 minutes with a multichannel photometer. With the aid of the standard curves carried along, the measurement values can now be quantified and used for calculating the lipid measurement parameter stimulation/effector quotient profiles (an example for the calculation is given herein below).
1) Leukocytes from the peripheral blood of investigation group 1/standard group/investigation group 2 are obtained by blood withdrawal, followed by density gradient separation (3% dextran solution) for separating plasma and leukocytes. The leukocytes thus obtained are washed 3 times with phosphate buffered solution (PBS) and pooled/resuspended in cell culture medium ([…]), before they are adjusted to a cell count of 100,000 cells/ml (investigation group 2 only in this example; in principle, a second group is not necessary for this test, but serves here for a better understanding and as second comparison group, both to the standard group and to the investigation group).
2) The cells are divided into 3 equal parts (e.g. 3 times with 1 ml cell suspension with 100,000 cells/ml each) in reaction vessels (e.g. plastic or glass vessels).
A control solution is added to the first part-sample (=without further modulator, =zero or blank value; control solution is the solvent, in which the modulators are dissolved).
Arachidonic acid is added to the second part-sample (concentration: 10^−5 M; =indicator substance).
An anti-immunoglobulin-E solution is added to the third part-sample (e.g. 1:100 dilution of the anti-human-IgE-solution from DAKO, =modulator or modulating substance).
Exposition/incubation with the indicator substance arachidonic acid and the modulator anti-immunoglobulin-E-solution is started simultaneously at e.g. 37° C. for e.g. 30 minutes.
Thereafter, the cells are separated from the cell culture medium, e.g. by centrifugation at 4° C. with a sedimentation force of e.g. 800×g. The supernatant obtained from the 3 part-samples, separated for each part-sample, is then collected in suitable vessels (e.g. cryovessels) and stored until EIA analysis at e.g. −70° C.
3) The contents of prostaglandin E2 (PGE2) and peptide leukotrienes (pLT9) in the cell culture supernatants of the 3 part-samples are analysed and quantified by enzyme immunological assays (EIA) specific for PGE2 (=lipid measurement parameter A) and pLT (=lipid measurement parameter B), respectively.

CCCCC/C=C\C/C=C\C/C=C\C/C=C\CCCC(=O)O [arachidonic acid]
PGE2 (lipid measurement parameter A) in cell culture supernatant (Investigation group 1 (I1)): 4120 ± 236 pg/mL | pLT (lipid measurement parameter B) in cell culture supernatant (Investigation group 1 (I1)): 150±10.4 pg/ml | Effector quotient (PGE/pLT) (Investigation group 1 (i1)): 27.5 | Modulation quotient PGE2 (modulated value / zero value A0) (Investigation group 1 (i1)): 11.8 | Modulation quotient pLT (modulated value / zero value B0) (Investigation group 1 (i1)): 1.3 | Standardized effector quotient (PGE/pLT) (Investigation group 1 (i1)): 0.941 | Standardized modulation quotient PGE2 (Investigation group 1 (i1)): 5.1 | Standardized modulation quotient pLT (Investigation group 1 (i1)): 0.21 | PGE2 (lipid measurement parameter A) in cell culture supernatant (Investigation group 2 (I2)): 3976 ± 245 pg/mL | pLT (lipid measurement parameter B) in cell culture supernatant (Investigation group 2 (I2)): 128 ± 10.4 pg/ml | Effector quotient (PGE/pLT) (Investigation group 2 (i2)): 31.1 | Modulation quotient PGE2 (modulated value / zero value A0) (Investigation group 2 (i2)): 1.8 | Modulation quotient pLT (modulated value / zero value B0) (Investigation group 2 (i2)): 2.4 | Standardized effector quotient (PGE/pLT) (Investigation group 2 (i2)): 1.065 | Standardized modulation quotient PGE2 (Investigation group 2 (i2)): 0.78 | Standardized modulation quotient pLT (Investigation group 2 (i2)): 0.38 | PGE2 (lipid measurement parameter A) in cell culture supernatant (Standard group (N)): 4170 ± 275 pg/mL | pLT (lipid measurement parameter B) in cell culture supernatant (Standard group (N)): 143 ± 12.4 pg/ml | Effector quotient (PGE/pLT) (Standard group (n)): 29.2 | Modulation quotient PGE2 (modulated value / zero value A0) (Standard group (n)): 2.3 | Modulation quotient pLT (modulated value / zero value B0) (Standard group (n)): 6.2 | Standardized effector quotient (PGE/pLT) (Standard group (n)): 1 (0.9-1.1) | Standardized modulation quotient PGE2 (Standard group (n)): 1 (0.8-1.2) | Standardized modulation quotient pLT (Standard group (n)): 1 (0.5-1.2) | induced synthesis of prostaglandin E2 compared with persons without pathological findings (analgesic intolerance): unstriking | elevation of induced synthesis of peptide leukotriene compared with persons without pathological findings (analgesic intolerance, unstriking to faintly elevated): 0-40%
